Data on 16 compounds can be found in BindingDB's records for doi:10.1007/s002109900044 (Universitat Wurzburg, 1999).

In one assay the target is T1, Adenosine receptor A1 (Homo sapiens, UniProt P30542).
T1 sequence (P30542 whole entry): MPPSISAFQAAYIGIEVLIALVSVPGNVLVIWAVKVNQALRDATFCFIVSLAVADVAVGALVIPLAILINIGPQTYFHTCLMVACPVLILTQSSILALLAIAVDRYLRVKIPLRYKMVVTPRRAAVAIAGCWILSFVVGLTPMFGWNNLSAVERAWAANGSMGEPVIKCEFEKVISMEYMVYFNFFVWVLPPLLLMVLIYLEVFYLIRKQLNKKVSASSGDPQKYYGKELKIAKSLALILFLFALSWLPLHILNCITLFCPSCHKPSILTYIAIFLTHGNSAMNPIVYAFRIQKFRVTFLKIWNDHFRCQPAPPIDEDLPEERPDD

Another assay deals with Adenosine receptor A2a (Homo sapiens, UniProt P29274).
Adenosine receptor A2a, sequence (P29274 whole entry): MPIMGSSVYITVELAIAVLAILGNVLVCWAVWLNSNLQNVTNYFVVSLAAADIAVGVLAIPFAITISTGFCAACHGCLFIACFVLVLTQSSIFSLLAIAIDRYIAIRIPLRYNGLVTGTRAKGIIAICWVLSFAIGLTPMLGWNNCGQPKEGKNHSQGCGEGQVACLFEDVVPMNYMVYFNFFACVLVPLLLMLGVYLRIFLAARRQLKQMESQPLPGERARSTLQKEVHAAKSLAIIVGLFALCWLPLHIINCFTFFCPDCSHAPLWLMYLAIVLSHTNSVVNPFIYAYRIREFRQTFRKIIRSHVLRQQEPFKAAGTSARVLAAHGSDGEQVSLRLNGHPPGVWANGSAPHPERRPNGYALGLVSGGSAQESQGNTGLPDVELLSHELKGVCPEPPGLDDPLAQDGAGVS
For a further assay, the target named is T2, Adenosine receptor A3 (Homo sapiens, UniProt P0DMS8).
T2 sequence (P0DMS8 whole entry): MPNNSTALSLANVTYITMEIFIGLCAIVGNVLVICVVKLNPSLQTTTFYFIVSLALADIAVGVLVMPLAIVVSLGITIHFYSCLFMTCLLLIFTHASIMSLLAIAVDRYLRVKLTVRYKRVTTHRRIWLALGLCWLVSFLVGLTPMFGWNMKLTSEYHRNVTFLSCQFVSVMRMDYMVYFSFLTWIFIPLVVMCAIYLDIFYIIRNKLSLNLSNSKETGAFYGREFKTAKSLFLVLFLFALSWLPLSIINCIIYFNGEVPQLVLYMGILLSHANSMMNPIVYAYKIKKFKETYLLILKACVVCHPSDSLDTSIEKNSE

As for `CCNC(=O)C1OC(n2cnc3c(N)nc(C#CC4=CCCCC4)nc32)C(O)C1O` (stereo not given) [5-(6-Amino-2-cyclohex-1-enylethynyl-purin-9-yl)-3,4-dihydroxy-tetrahydro-furan-2-carboxylic acid ethylamide], the Ki at Adenosine receptor A1 came to 87 nM; at Adenosine receptor A2a it was 100 nM; at Adenosine receptor A3 it was 28 nM.

As to `CCNC(=O)C1OC(n2cnc3c(N)nc(C#CCC(C)O)nc32)C(O)C1O` (stereo not given) [5-[6-Amino-2-(4-hydroxy-pent-1-ynyl)-purin-9-yl]-3,4-dihydroxy-tetrahydro-furan-2-carboxylic acid ethylamide], the Ki at Adenosine receptor A1 turned out to be 40 nM; on Adenosine receptor A2a, 14 nM; at Adenosine receptor A3, 4.1 nM.

In the case of `CCNC(=O)C1OC(n2cnc3c(N)nc(C#CC(C)(O)c4ccccc4)nc32)C(O)C1O` (stereo not given) [5-[6-Amino-2-(3-hydroxy-3-phenyl-but-1-ynyl)-purin-9-yl]-3,4-dihydroxy-tetrahydro-furan-2-carboxylic acid ethylamide], the Ki was 9.4 nM on Adenosine receptor A1, 56 nM on Adenosine receptor A2a and 2.4 nM on Adenosine receptor A3.

Regarding `CCNC(=O)C1OC(n2cnc3c(N)nc(C#Cc4ccc(CCC(=O)O)cc4)nc32)C(O)C1O` (stereo not given) [3-{4-[6-Amino-9-(5-ethylcarbamoyl-3,4-dihydroxy-tetrahydro-furan-2-yl)-9H-purin-2-ylethynyl]-phenyl}-propionic acid], the results for the Ki at Adenosine receptor A1, at Adenosine receptor A2a and on Adenosine receptor A3 were 1000 nM, 2200 nM and 42 nM, respectively.

With `CCNC(=O)C1OC(n2cnc3c(N)nc(C#Cc4ccc(C(N)=O)cc4)nc32)C(O)C1O` (stereo not given) [5-{6-amino-2-[2-(4-carbamoylphenyl)ethynyl]-9H-purin-9-yl}-N-ethyl-3,4-dihydroxyoxolane-2-carboxamide], the results for the Ki on Adenosine receptor A1, at Adenosine receptor A2a and on Adenosine receptor A3 were 200 nM, 470 nM and 9.3 nM, respectively.

Take `CCNC(=O)[C@H]1O[C@@H](n2cnc3c(N)nc(C#C[C@@H](O)c4ccccc4)nc32)[C@H](O)[C@@H]1O` [6R, (R)-PHPNECA]: the results for the Ki on Adenosine receptor A1, at Adenosine receptor A2a and on Adenosine receptor A3 were 1.9 nM, 39 nM and 5.5 nM, respectively.

As for `CCCCC#Cc1nc(N)c2ncn([C@@H]3O[C@H](C(=O)NCC)[C@H](O)C3O)c2n1` (stereo partly drawn) [(2S,3R,5R)-5-[6-amino-2-(hex-1-yn-1-yl)-9H-purin-9-yl]-N-ethyl-3,4-dihydroxyoxolane-2-carboxamide], the Ki worked out at 6.4 nM at Adenosine receptor A2a and 2.4 nM on Adenosine receptor A3.

Turning to `CCNC(=O)C1OC(n2cnc3c(N)nc(C#CCCCC#N)nc32)C(O)C1O` (stereo not given) [5-[6-Amino-2-(5-cyano-pent-1-ynyl)-purin-9-yl]-3,4-dihydroxy-tetrahydro-furan-2-carboxylic acid ethylamide], the Ki on Adenosine receptor A1 came to 38 nM; at Adenosine receptor A2a, 25 nM; on Adenosine receptor A3, 4.7 nM.

In the case of `CCNC(=O)C1OC(n2cnc3c(N)nc(C#CC(C)O)nc32)C(O)C1O` (stereo not given) [5-[6-Amino-2-(3-hydroxy-but-1-ynyl)-purin-9-yl]-3,4-dihydroxy-tetrahydro-furan-2-carboxylic acid ethylamide], the Ki amounted to 3.3 nM on Adenosine receptor A1, 14 nM on Adenosine receptor A2a and 1.5 nM at Adenosine receptor A3.

As for `CCNC(=O)C1OC(n2cnc3c(N)nc(C#CCCCc4ccccc4)nc32)C(O)C1O` (stereo not given) [5-[6-Amino-2-(5-phenyl-pent-1-ynyl)-purin-9-yl]-3,4-dihydroxy-tetrahydro-furan-2-carboxylic acid ethylamide], the figures for the Ki on Adenosine receptor A1 and at Adenosine receptor A3 were 180 nM and 27 nM, respectively.

With `CCNC(=O)C1OC(n2cnc3c(N)nc(C#Cc4ccco4)nc32)C(O)C1O` (stereo not given) [5-{6-amino-2-[2-(furan-2-yl)ethynyl]-9H-purin-9-yl}-N-ethyl-3,4-dihydroxyoxolane-2-carboxamide], the values for the Ki at Adenosine receptor A1, at Adenosine receptor A2a and at Adenosine receptor A3 were 140 nM, 510 nM and 12 nM, respectively.

On to `CCNC(=O)C1OC(n2cnc3c(N)nc(C#C[C@H](O)c4ccccc4)nc32)C(O)C1O` (stereo partly drawn) [6S, (S)-PHPNECA], for which the Ki turned out to be 2.1 nM on Adenosine receptor A1, 2 nM on Adenosine receptor A2a and 0.75 nM at Adenosine receptor A3.

On to `CCNC(=O)C1OC(n2cnc3c(N)nc(C#Cc4nccs4)nc32)C(O)C1O` (stereo not given) [5-(6-Amino-2-thiazol-2-ylethynyl-purin-9-yl)-3,4-dihydroxy-tetrahydro-furan-2-carboxylic acid ethylamide], for which the inhibition constant (Ki) at Adenosine receptor A1 turned out to be 12 nM; on Adenosine receptor A3, 3.7 nM.

In the case of `CCNC(=O)C1OC(n2cnc3c(N)nc(C#CCOc4ccccc4)nc32)C(O)C1O` (stereo not given) [2-substituted NECA derivatives, 8], the Ki at Adenosine receptor A1 amounted to 8 nM; on Adenosine receptor A2a it was 180 nM; on Adenosine receptor A3, 14 nM.

In the case of `CCNC(=O)C1OC(n2cnc3c(N)nc(C#CC(O)c4ccccc4)nc32)C(O)C1O` (stereo not given) [R,S-PHPNECA], the Ki at Adenosine receptor A1 was found to be 2.7 nM; on Adenosine receptor A2a, 3.1 nM; on Adenosine receptor A3, 0.42 nM.

Regarding `CCNC(=O)C1OC(n2cnc3c(N)nc(C#Cc4ccccc4)nc32)C(O)C1O` (stereo not given) [5-(6-Amino-2-phenylethynyl-purin-9-yl)-3,4-dihydroxy-tetrahydro-furan-2-carboxylic acid ethylamide], the Ki at Adenosine receptor A1 came out at 560 nM; on Adenosine receptor A2a, 620 nM; on Adenosine receptor A3, 6.2 nM.

For orientation: Ki means the dissociation constant of the complex between target and ligand, obtained from inhibition or displacement.
